Experimental findings from US20250215030A1, “STAT MODULATORS AND USES THEREOF” (Recludix Pharma, Inc., priority 2022, published 2025) are described below.

SMILES strings stand for the structures. pIC50: −log10 of the molar value.

T1 sequence (P40763 whole entry): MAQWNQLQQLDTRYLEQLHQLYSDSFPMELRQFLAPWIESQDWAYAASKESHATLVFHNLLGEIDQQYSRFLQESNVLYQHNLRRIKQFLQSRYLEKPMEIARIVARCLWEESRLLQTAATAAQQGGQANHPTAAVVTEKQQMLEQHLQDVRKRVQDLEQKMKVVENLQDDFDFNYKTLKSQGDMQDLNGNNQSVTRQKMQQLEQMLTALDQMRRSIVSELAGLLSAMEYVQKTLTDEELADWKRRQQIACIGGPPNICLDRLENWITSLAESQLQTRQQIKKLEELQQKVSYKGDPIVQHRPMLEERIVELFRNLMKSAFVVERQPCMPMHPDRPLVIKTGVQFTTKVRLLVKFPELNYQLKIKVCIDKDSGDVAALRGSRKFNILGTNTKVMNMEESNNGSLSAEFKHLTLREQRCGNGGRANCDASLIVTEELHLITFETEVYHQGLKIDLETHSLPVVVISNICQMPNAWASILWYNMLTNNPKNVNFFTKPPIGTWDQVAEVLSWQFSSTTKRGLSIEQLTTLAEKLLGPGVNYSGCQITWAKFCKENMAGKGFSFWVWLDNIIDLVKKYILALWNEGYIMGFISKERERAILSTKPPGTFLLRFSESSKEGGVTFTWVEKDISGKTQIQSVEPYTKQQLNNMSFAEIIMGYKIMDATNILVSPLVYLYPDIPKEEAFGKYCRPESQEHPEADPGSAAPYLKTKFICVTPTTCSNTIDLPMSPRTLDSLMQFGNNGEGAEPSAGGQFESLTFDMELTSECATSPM

One assay concerns the target T1, pSTAT3 (pY705-STAT3) (Homo sapiens, UniProt P40763).
T1 construct: host or cells: cryopreserved PBMC
In words: MSD-pSTAT-PBMC Assay (pSTAT3, IL-6 stimulated). In kind it is cell-based.
Conditions: not given
Summed up:
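Phospho-STAT levels captured on anti-STAT3 or anti-STAT6 plates and detected with anti-pY705 or anti-pY641 antibodies (MSD read-out). Cryopreserved human PBMCs received compound for 3 h before a 10 min pulse of IL-6 (10 ng/mL, STAT3) or IL-4 (1 ng/mL, STAT6). IC50 fitted after unstimulated-background subtraction and DMSO normalization.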
For `CCCOC(=O)[C@H](C)NP(=O)(Oc1ccccc1)C(F)c1ccc2sc(C(=O)N[C@H]3C[C@H]4C[C@H]4C[C@H]4CC[C@@H](C(=O)N[C@H]5CN(C(C)=O)C[C@@H]5F)N4C3=O)cc2c1` (stereo partly drawn) [Compound 255, propyl(((2-(((3S,6S,7aR,8aS,9aR)-3-(((3S,4S)-1-acetyl-4-fluoropyrrolidin-3-yl)carbamoyl)-5-oxodecahydro-1H-cyclopropa[d]pyrrolo[1,2-a]azocin-6-yl)carbamoyl)benzo[b]thiophen-5-yl)fluoromethyl)(phenoxy)phosphoryl)-L-alaninate], the pIC50 is 6.00 to 7.00. Still for that read-out and setting: the figure for `Cc1ccncc1C1CN(C(=O)[C@@H]2CC[C@@H]3C[C@H]4C[C@H]4C[C@H](NC(=O)c4cc5cc(C(F)P(=O)(N[C@@H](C)C(=O)OC(C)C)Oc6ccccc6)ccc5s4)C(=O)N32)C1` (stereo partly drawn) [Compound 281, isopropyl ((fluoro(2-(((3S,6S,7aS,8aR,9aR)-3-(3-(4-methylpyridin-3-yl)azetidine-1-carbonyl)-5-oxodecahydro-1H-cyclopropa[d]pyrrolo[1,2-a]azocin-6-yl)carbamoyl)benzo[b]thiophen-5-yl)methyl)(phenoxy)phosphoryl)-L-alaninate] is above 7.00; for `CCCOC(=O)[C@H](CC)NP(=O)(Oc1ccccc1)C(F)c1ccc2sc(C(=O)N[C@H]3C[C@@H]4C[C@@H]4C[C@H]4CC[C@@H](C(=O)N5CC(c6cnccc6C)C5)N4C3=O)cc2c1` (stereo partly drawn) [Compound 283, propyl(2S)-2-(((fluoro(2-(((3S,6S,7aS,8aR,9aR)-3-(3-(4-methylpyridin-3-yl)azetidine-1-carbonyl)-5-oxodecahydro-1H-cyclopropa[d]pyrrolo[1,2-a]azocin-6-yl)carbamoyl)benzo[b]thiophen-5-yl)methyl)(phenoxy)phosphoryl)amino)butanoate] it is above 7.00.

As to `CCCOC(=O)[C@H](COC)NP(=O)(Oc1ccccc1)C(F)c1ccc2sc(C(=O)N[C@H]3C[C@@H]4C[C@@H]4C[C@H]4CC[C@@H](C(=O)N5CC(c6cnccc6C)C5)N4C3=O)cc2c1` (stereo partly drawn) [Compound 284, propyl N-((fluoro(2-(((3S,6S,7aS,8aR,9aR)-3-(3-(4-methylpyridin-3-yl)azetidine-1-carbonyl)-5-oxodecahydro-1H-cyclopropa[d]pyrrolo[1,2-a]azocin-6-yl)carbamoyl)benzo[b]thiophen-5-yl)methyl)(phenoxy)phosphoryl)-O-methyl-L-serinate], the pIC50 is above 7.00.

Staying with this assay, now noted: PBMC, compound 3 hrs, then 10 ng/mL IL-6 for 10 min; MSD pY705-STAT3; read-out: pSTAT3.
In the case of `CCCOC(=O)[C@H](C)NP(=O)(Oc1ccccc1)C(F)c1ccc2sc(C(=O)N[C@H]3C[C@@H]4C[C@@H]4C[C@H]4CC[C@@H](C(=O)N5CC(c6cnccc6F)C5)N4C3=O)cc2c1` (stereo partly drawn) [Compound 263, propyl ((fluoro(2-(((3S,6S,7aS,8aR,9aR)-3-(3-(4-fluoropyridin-3-yl)azetidine-1-carbonyl)-5-oxodecahydro-1H-cyclopropa[d]pyrrolo[1,2-a]azocin-6-yl)carbamoyl)benzo[b]thiophen-5-yl)methyl)(phenoxy)phosphoryl)-L-alaniante], the pIC50 was above 7.00. As to `CCCOC(=O)[C@H](C)NP(=O)(Cc1ccc2sc(C(=O)N[C@H]3C[C@@H]4C[C@@H]4C[C@H]4CC[C@@H](C(=O)N5CC(c6cnccc6F)C5)N4C3=O)cc2c1)Oc1ccccc1` (stereo partly drawn) [Compound 264, propyl (((2-(((3S,6S,7aS,8aR,9aR)-3-(3-(4-fluoropyridin-3-yl)azetidine-1-carbonyl)-5-oxodecahydro-1H-cyclopropa[d]pyrrolo[1,2-a]azocin-6-yl)carbamoyl)benzo[b]thiophen-5-yl)methyl)(phenoxy)phosphoryl)-L-alaninate], the pIC50 was above 7.00. Still for that read-out and setting: to `CCCOC(=O)[C@H](C)NP(=O)(Oc1ccccc1)C(F)c1ccc2sc(C(=O)N[C@H]3C[C@H]4C[C@H]4C[C@H]4CC[C@@H](C(=O)N[C@H]5CN(c6cccnc6)C[C@@H]5F)N4C3=O)cc2c1` (stereo partly drawn) [Compound 268, propyl ((fluoro(2-(((3S,6S,7aR,8aS,9aR)-3-(((3S,4S)-4-fluoro-1-(pyridin-3-yl)pyrrolidin-3-yl)carbamoyl)-5-oxodecahydro-1H-cyclopropa[d]pyrrolo[1,2-a]azocin-6-yl)carbamoyl)benzo[b]thiophen-5-yl)methyl)(phenoxy)phosphoryl)-L-alaninate] belongs above 7.00; to `CCCOC(=O)[C@H](C)NP(=O)(Cc1ccc2sc(C(=O)N[C@H]3C[C@H]4C[C@H]4C[C@H]4CC[C@@H](C(=O)N[C@H]5CN(c6cccnc6)C[C@@H]5F)N4C3=O)cc2c1)Oc1ccccc1` (stereo partly drawn) [Compound 269, propyl(((2-(((3S,6S,7aR,8aS,9aR)-3-(((3S,4S)-4-fluoro-1-(pyridin-3-yl)pyrrolidin-3-yl)carbamoyl)-5-oxodecahydro-1H-cyclopropa[d]pyrrolo[1,2-a]azocin-6-yl)carbamoyl)benzo[b]thiophen-5-yl)methyl)(phenoxy)phosphoryl)-L-alaniante], above 7.00; to `CCCOC(=O)C(C)(C)NP(=O)(Oc1ccccc1)C(F)c1ccc2sc(C(=O)N[C@H]3C[C@@H]4C[C@@H]4C[C@H]4CC[C@@H](C(=O)N5CC(c6cnccc6C)C5)N4C3=O)cc2c1` (stereo partly drawn) [Compound 285, propyl 2-(((fluoro(2-(((3S,6S,7aS,8aR,9aR)-3-(3-(4-methylpyridin-3-yl)azetidine-1-carbonyl)-5-oxodecahydro-1H-cyclopropa[d]pyrrolo[1,2-a]azocin-6-yl)carbamoyl)benzo[b]thiophen-5-yl)methyl)(phenoxy)phosphoryl)amino)-2-methylpropanoate], above 7.00. For the compound `CCCOC(=O)[C@H](C)NP(=O)(OCC(F)(F)F)C(F)c1ccc2sc(C(=O)N[C@H]3C[C@@H]4C[C@@H]4C[C@H]4CC[C@@H](C(=O)N5CC(c6cnccc6C)C5)N4C3=O)cc2c1` (stereo partly drawn) [Compound 287, propyl ((fluoro(2-(((3S,6S,7aS,8aR,9aR)-3-(3-(4-methylpyridin-3-yl)azetidine-1-carbonyl)-5-oxodecahydro-1H-cyclopropa[d]pyrrolo[1,2-a]azocin-6-yl)carbamoyl)benzo[b]thiophen-5-yl)methyl)(2,2,2-trifluoroethoxy)phosphoryl)-L-alaninate], the pIC50 is above 7.00. Same read-out and setting: to `CC(C)(C)C(=O)SCCOP(=O)(OCCSC(=O)C(C)(C)C)C(F)c1ccc2sc(C(=O)N[C@H]3C[C@@H]4C[C@@H]4C[C@H]4CC[C@@H](C(=O)N5CC(c6cnccc6F)C5)N4C3=O)cc2c1` (stereo partly drawn) [Compound 306, S,S′-((((fluoro(2-(((3S,6S,7aS,8aR,9aR)-3-(3-(4-fluoropyridin-3-yl)azetidine-1-carbonyl)-5-oxodecahydro-1H-cyclopropa[d]pyrrolo[1,2-a]azocin-6-yl)carbamoyl)benzo[b]thiophen-5-yl)methyl)phosphoryl)bis(oxy))bis(ethane-2,1-diyl))bis(2,2-dimethylpropanethioate)] belongs above 7.00; to `CCCOC(=O)[C@H](C)NP(=O)(Oc1ccccc1)C(F)c1ccc2sc(C(=O)N[C@H]3C[C@@H]4C[C@@H]4C[C@H]4CC[C@@H](C(=O)N5CC(c6cnccc6C)C5)N4C3=O)cc2c1` (stereo partly drawn) [Compound 307, propyl ((fluoro(2-(((3S,6S,7aS,8aR,9aR)-3-(3-(4-methylpyridin-3-yl)azetidine-1-carbonyl)-5-oxodecahydro-1H-cyclopropa[d]pyrrolo[1,2-a]azocin-6-yl)carbamoyl)benzo[b]thiophen-5-yl)methyl)(phenoxy)phosphoryl)-L-alaninate], above 7.00.
